Measured values as given in ChEMBL document CHEMBL1128874 (Bioorg Med Chem Lett, 1995).

Assay: Antagonism of calmodulin dependent cAMP Phosphodiesterase
Assay type: functional
Work on `CC/C(=C(\c1ccc(I)cc1)c1ccc(OCCN2CCCC2)cc1)c1ccc(I)cc1` yielded an IC50 of 5000 nM.
In the case of `CC/C(=C(\c1ccc(I)cc1)c1ccc(OCCN2CCCC2)cc1)c1ccc(O)cc1`, the IC50 is reported as 1800 nM.
Work on `CC/C(=C(\c1ccc(I)cc1)c1ccc(OCCN2CCCC2)cc1)c1ccc(N)cc1` yielded an IC50 of 2600 nM.
`CC/C(=C(/c1ccc(I)cc1)c1ccc(OCCN2CCCC2)cc1)c1ccc(O)cc1` showed an IC50 of 2200 nM.
Work on `CC/C(=C(\c1ccc(I)cc1)c1ccc(OCCN2CCCC2)cc1)c1ccccc1` [IDOXIFENE] yielded an IC50 of 1500 nM.
